Data reported in ChEMBL document CHEMBL5728791, “Heteroaromatic derivatives as NIK inhibitors” (2021).

molecular target: Mitogen-activated protein kinase kinase kinase 14 (Homo sapiens, UniProt Q99558); test: Inhibition of auto-phosphorylation of recombinant human NF-kappaB-inducing kinase (NIK/MAP3K14) activity: NIK/MAP3K14 auto-phosphorylation activity was measured using the AlphaScreen® (αscreen) format (Perkin Elmer). All compounds tested were dissolved in dimethyl sulfoxide (DMSO) and further dilutions were made in assay buffer. Final DMSO concentration was 1% (v/v) in assays. Assay buffer was 50 mM Tris pH 7.5 containing 1 mM EGTA (ethylene glycol tetraacetic acid), 1 mM DTT (dithiothreitol), 0.1 mM Na3VO4, 5 mM MgCl2, 0.01% Tween® 20. Assays were carried out in 384 well Alphaplates (Perkin Elmer). Incubations consisted of compound, 25 microM Adenosine-5′-triphosphate (ATP), and 0.2 nM NIK/MAP3K14. Incubations were initiated by addition of GST-tagged NIK/MAP3K14 enzyme, carried out for 1 h at 25° C. and terminated by addition of stop buffer containing anti-phospho-IKK Ser176/180 antibody. Protein A Acceptor and Glutathione-Donor beads were added before reading using an EnVision® Multilabel Plate Reader (Perkin Elmer). Signal obtained in the wells containing blank samples was subtracted from all other wells and IC50's were determined by fitting a sigmoidal curve to % inhibition of control versus Log10 compound concentration.
Sequence (Q99558 whole entry): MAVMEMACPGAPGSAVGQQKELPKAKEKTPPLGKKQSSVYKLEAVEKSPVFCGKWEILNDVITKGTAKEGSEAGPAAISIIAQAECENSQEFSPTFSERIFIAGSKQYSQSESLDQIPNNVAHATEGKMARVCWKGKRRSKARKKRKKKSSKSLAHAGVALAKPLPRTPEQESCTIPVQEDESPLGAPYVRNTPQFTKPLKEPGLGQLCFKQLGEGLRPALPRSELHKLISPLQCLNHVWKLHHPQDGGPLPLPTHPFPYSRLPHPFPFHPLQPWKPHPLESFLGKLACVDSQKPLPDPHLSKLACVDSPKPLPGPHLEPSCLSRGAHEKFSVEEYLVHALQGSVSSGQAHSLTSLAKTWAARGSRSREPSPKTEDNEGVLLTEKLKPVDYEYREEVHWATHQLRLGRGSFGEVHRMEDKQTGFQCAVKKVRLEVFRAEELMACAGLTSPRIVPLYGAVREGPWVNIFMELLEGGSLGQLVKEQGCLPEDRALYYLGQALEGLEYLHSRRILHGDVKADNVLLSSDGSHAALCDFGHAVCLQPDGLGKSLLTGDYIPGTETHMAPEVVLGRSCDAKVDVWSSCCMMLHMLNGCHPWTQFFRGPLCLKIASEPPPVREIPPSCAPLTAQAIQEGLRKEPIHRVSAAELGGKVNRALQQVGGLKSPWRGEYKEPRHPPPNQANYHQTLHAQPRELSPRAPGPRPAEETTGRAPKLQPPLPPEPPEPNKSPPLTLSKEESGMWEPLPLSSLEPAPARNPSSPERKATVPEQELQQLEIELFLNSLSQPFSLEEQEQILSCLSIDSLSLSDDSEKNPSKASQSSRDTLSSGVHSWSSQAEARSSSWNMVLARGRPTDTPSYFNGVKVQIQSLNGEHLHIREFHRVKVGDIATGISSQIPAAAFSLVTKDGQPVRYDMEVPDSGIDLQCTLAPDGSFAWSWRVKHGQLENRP

Row | IC50 | SMILES
1 | 4 nM | COCCCn1nc(C)cc1Nc1nccc(-c2cc(C#N)c3c(c2)[C@@](C)(CO)CN3)n1
2 | 3.2 nM | Cc1nn(C)cc1Nc1nccc(-c2cc(C#N)c3c(c2)C(C)(CO)CN3)n1 (stereo not drawn)
3 | 21 nM | Cc1cc(Nc2nccc(-c3cc(C#N)c4c(c3)C(C)(CO)CN4)n2)n(CCN(C)C)n1 (stereo not drawn)
